Laboratory results published in ChEMBL document CHEMBL3132769, “Fragment growing to retain or alter the selectivity of anchored kinase hinge-binding fragments” (Medchemcomm, 2014).

Assays:
[1] = target: Tyrosine-protein kinase HCK (Homo sapiens) (UniProt P08631); assay: Inhibition of human HCK catalytic domain expressed in baculovirus assessed as substrate phosphorylation using fluorescence-labelled peptides as substrate at 9 uM after 90 mins by microfluidic peptide phosphorylation assay
[2] = target: Platelet-derived growth factor receptor alpha (Homo sapiens) (UniProt P16234); assay: Inhibition of human PDGFR alpha catalytic domain expressed in baculovirus assessed as substrate phosphorylation using fluorescence-labelled peptides as substrate at 0.06 uM after 90 mins by microfluidic peptide phosphorylation assay
Sequence of Platelet-derived growth factor receptor alpha (Homo sapiens) (P16234 whole entry, the tested form may be a part): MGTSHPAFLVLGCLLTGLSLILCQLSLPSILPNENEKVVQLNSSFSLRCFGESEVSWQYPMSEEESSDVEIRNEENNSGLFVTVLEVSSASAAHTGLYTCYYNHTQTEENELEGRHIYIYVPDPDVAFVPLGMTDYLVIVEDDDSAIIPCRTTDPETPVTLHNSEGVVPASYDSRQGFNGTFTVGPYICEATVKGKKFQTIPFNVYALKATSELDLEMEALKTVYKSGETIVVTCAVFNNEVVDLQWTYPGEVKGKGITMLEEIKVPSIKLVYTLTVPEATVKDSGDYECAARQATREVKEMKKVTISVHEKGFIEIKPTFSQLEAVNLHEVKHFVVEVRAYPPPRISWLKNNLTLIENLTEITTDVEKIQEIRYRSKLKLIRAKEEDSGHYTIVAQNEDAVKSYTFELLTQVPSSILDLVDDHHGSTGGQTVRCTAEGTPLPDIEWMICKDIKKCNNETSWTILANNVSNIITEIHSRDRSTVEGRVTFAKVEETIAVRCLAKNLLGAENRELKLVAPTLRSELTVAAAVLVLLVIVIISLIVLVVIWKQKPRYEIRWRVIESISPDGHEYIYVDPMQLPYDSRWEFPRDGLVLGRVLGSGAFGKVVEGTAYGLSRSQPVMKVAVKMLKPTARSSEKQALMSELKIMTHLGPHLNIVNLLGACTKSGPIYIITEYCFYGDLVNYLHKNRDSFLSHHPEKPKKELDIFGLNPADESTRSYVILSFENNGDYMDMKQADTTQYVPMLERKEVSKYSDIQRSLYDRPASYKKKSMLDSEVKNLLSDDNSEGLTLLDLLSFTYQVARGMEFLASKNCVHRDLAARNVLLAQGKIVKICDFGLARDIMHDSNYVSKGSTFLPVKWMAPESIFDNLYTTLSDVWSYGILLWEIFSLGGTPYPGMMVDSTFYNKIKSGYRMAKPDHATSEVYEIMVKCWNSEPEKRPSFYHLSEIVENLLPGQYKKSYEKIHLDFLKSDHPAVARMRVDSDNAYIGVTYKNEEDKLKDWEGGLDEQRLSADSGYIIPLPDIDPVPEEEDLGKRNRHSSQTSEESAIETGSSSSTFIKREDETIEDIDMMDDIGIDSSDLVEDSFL

[3] = target: Aurora kinase B (Homo sapiens) (UniProt Q96GD4); assay: Inhibition of human full length AurB expressed in baculovirus assessed as substrate phosphorylation using fluorescence-labelled peptides as substrate at 0.06 uM after 90 mins by microfluidic peptide phosphorylation assay
Sequence of Aurora kinase B (Homo sapiens) (Q96GD4 whole entry, the tested form may be a part): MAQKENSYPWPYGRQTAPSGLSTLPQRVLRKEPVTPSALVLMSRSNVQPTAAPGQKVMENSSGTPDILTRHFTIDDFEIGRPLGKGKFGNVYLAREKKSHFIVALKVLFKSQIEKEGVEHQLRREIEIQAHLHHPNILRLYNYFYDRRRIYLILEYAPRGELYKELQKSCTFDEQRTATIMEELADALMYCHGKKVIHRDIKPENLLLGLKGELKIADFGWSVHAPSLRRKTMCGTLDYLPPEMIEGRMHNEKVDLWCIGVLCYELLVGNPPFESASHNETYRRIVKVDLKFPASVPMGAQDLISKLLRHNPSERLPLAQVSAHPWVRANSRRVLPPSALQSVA

[4] = target: Glycogen synthase kinase-3 beta (Homo sapiens) (UniProt P49841); assay: Inhibition of human full length GSK-3 beta expressed in baculovirus assessed as substrate phosphorylation using fluorescence-labelled peptides as substrate at 0.06 uM after 90 mins by microfluidic peptide phosphorylation assay
Sequence of Glycogen synthase kinase-3 beta (Homo sapiens) (P49841 whole entry, looked up, canonical isoform): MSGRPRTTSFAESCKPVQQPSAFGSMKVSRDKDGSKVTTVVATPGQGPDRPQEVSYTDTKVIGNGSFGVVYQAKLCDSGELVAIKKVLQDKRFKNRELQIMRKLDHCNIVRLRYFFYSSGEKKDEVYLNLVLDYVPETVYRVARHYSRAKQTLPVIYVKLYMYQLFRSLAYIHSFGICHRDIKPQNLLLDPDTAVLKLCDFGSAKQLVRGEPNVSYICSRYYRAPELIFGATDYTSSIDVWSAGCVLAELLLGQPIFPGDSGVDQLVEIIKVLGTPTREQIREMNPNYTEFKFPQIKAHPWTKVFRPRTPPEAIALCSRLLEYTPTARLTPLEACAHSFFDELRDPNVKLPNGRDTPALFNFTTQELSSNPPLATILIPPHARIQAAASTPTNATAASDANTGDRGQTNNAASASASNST

[5] = target: T1, Serine/threonine-protein kinase D3 (Homo sapiens) (UniProt O94806); conditions: 0.1 uM
T1 sequence (whole entry): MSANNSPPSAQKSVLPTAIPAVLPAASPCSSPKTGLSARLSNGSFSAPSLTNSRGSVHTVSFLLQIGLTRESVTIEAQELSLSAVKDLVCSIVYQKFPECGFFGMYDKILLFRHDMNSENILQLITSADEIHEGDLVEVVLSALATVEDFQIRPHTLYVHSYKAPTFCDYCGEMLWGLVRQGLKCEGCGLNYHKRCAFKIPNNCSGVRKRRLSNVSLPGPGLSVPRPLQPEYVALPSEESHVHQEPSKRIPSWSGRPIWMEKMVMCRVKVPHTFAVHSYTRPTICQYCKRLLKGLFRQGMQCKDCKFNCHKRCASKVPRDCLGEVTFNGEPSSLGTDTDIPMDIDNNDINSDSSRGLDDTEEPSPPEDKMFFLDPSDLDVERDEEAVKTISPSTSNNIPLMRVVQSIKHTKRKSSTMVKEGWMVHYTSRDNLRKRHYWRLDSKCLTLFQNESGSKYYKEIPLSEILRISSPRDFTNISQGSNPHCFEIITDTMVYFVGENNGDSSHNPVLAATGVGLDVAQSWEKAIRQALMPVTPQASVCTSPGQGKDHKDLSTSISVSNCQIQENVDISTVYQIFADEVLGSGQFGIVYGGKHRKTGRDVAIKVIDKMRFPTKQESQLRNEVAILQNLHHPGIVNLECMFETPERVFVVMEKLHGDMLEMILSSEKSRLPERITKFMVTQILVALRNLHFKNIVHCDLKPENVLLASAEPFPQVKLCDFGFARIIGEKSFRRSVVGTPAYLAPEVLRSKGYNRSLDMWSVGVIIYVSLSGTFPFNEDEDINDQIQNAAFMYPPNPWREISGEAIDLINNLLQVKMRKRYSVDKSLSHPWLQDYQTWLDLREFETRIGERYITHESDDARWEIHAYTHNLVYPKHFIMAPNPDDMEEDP
Description: Inhibition of human full length PKD3 expressed in baculovirus assessed as substrate phosphorylation using fluorescence-labelled peptides as substrate at 0.1 uM after 90 mins by microfluidic peptide phosphorylation assay

[6] = target: T2, Serine/threonine-protein kinase Chk1 (Homo sapiens) (UniProt O14757); assay: Inhibition of human full length CHK1 expressed in baculovirus assessed as substrate phosphorylation using fluorescence-labelled peptides as substrate at 420 uM after 90 mins by microfluidic peptide phosphorylation assay
T2 sequence (whole entry): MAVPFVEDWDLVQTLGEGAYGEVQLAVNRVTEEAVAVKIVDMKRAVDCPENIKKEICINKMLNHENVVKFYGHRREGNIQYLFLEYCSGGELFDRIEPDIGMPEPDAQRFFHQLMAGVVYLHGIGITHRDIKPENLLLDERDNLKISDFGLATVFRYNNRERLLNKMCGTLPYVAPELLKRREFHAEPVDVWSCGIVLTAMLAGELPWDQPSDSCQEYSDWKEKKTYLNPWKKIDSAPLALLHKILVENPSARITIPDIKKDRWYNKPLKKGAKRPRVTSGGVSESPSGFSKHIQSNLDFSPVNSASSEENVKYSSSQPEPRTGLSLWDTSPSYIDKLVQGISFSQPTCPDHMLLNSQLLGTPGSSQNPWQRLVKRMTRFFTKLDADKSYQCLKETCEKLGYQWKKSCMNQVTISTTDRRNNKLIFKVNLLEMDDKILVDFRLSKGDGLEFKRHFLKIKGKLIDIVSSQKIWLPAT

[7] = target: T3, Serine/threonine-protein kinase Sgk3 (Homo sapiens) (UniProt Q96BR1); assay: Inhibition of human full length SGK3 expressed in baculovirus assessed as substrate phosphorylation using fluorescence-labelled peptides as substrate at 0.2 uM after 90 mins by microfluidic peptide phosphorylation assay
T3 sequence (whole entry): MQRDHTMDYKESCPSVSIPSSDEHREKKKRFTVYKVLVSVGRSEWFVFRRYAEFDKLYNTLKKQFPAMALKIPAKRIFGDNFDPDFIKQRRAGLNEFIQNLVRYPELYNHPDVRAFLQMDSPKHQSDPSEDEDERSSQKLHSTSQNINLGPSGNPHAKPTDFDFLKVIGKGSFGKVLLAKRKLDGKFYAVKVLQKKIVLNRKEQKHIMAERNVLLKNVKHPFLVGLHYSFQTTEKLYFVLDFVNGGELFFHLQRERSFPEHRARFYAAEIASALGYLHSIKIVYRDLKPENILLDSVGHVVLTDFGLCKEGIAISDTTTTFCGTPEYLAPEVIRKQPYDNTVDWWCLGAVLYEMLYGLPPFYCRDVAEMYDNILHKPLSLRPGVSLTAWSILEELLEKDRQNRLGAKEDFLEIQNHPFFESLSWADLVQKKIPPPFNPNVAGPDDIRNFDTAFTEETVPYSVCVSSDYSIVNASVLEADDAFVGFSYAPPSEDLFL

[8] = target: Aurora kinase B (Homo sapiens) (UniProt Q96GD4); assay: Inhibition of human full length AurB expressed in baculovirus assessed as substrate phosphorylation using fluorescence-labelled peptides as substrate at 2 uM after 90 mins by microfluidic peptide phosphorylation assay
[9] = target: Protein kinase C theta type (Homo sapiens) (UniProt Q04759); assay: Inhibition of human truncated PKC theta expressed in baculovirus assessed as substrate phosphorylation using fluorescence-labelled peptides as substrate at 2 uM after 90 mins by microfluidic peptide phosphorylation assay
Sequence of Protein kinase C theta type (Homo sapiens) (Q04759 whole entry, looked up, the tested form may be a part): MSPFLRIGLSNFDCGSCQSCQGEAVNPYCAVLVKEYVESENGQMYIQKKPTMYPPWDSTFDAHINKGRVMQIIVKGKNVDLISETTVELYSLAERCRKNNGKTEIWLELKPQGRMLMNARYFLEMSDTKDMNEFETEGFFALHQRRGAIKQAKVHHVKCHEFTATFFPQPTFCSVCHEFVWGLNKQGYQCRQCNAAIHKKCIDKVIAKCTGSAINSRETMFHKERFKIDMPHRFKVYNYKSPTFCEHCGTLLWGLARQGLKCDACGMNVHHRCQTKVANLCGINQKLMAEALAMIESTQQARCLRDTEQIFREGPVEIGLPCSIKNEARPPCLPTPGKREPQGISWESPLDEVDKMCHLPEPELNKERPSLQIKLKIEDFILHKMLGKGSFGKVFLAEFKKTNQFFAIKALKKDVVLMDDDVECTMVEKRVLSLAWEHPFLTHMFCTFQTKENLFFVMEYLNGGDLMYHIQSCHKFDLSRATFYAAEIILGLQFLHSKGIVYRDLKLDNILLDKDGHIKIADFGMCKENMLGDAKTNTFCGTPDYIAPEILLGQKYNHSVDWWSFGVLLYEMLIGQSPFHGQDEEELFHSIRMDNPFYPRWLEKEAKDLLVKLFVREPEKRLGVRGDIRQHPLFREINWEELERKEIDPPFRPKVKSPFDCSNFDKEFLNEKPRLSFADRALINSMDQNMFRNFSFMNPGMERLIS

[10] = target: Glycogen synthase kinase-3 beta (Homo sapiens) (UniProt P49841); assay: Inhibition of human full length GSK-3 beta expressed in baculovirus assessed as substrate phosphorylation using fluorescence-labelled peptides as substrate at 1000 uM after 90 mins by microfluidic peptide phosphorylation assay
[11] = target: Casein kinase I isoform alpha (Homo sapiens) (UniProt P48729); assay: Inhibition of human full length CSNK1A1 expressed in baculovirus assessed as substrate phosphorylation using fluorescence-labelled peptides as substrate at 1000 uM after 90 mins by microfluidic peptide phosphorylation assay
Sequence of Casein kinase I isoform alpha (Homo sapiens) (P48729 2-337 limits assumed): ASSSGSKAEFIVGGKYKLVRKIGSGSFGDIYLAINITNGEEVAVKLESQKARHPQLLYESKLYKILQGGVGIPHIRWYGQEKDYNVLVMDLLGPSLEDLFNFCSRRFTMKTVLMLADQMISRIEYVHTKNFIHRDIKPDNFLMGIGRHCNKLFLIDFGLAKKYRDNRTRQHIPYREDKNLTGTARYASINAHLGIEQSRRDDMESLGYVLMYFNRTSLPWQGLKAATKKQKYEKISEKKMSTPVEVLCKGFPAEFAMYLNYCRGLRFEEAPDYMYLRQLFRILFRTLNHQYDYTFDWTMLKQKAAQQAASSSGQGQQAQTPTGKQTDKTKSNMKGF

Sequence of Tyrosine-protein kinase HCK (Homo sapiens) (P08631 2-526 limits assumed): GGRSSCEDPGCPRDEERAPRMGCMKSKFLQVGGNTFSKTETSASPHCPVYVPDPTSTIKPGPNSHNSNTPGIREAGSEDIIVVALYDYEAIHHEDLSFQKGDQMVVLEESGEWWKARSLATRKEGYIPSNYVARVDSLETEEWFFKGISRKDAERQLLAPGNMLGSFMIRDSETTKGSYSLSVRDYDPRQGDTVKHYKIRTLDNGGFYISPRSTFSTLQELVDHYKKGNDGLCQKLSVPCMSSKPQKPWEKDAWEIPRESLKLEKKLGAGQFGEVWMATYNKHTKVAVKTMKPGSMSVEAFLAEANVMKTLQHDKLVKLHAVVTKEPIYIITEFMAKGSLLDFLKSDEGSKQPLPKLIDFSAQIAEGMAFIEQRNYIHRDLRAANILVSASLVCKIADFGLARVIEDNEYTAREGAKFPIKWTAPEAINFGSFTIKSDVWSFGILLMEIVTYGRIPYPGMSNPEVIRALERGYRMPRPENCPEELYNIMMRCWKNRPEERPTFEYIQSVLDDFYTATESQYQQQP

## NCC1CN(c2ncnc3[nH]c4cnccc4c23)CCO1 (stereo unspecified)
[1]
  inhibition: 29%

## NC1(Cc2ccc(Cl)cc2)CCN(c2ncnc3[nH]ccc23)CC1
[2]
  inhibition: 0%
[3]
  inhibition: 0%
[4]
  inhibition: 0%

## C[C@H](CN(C)C)Oc1nc(Nc2cc3cccc(Cl)c3cn2)cnc1C#N
[5]
  inhibition: 0%

## c1nc(N2CCOCC2)c2nc[nH]c2n1
[6]
  inhibition: 88.5%

## Clc1ccc(C2(c3ccc(-c4ncnc5[nH]cnc45)cc3)CCNCC2)cc1
[7]
  inhibition: 41%

## NC1CCN(c2ncnc3[nH]ccc23)CC1
[8]
  inhibition: 34%
[9]
  inhibition: 13%

## c1cnc2[nH]ccc2c1
[10]
  inhibition: 32%
[11]
  inhibition: 73.5%
